Where a SMILES comes first, the peptide text is derived from it. Bridges are numbered along the chain shown (N, C = ends).
How the values were obtained:
CD rats = assay: rat gastrointestinal transit assay; assay type: in vivo
Protocol: The gastrointestinal transit assay was also performed in male and female CD rats (Charles River; Wilmington, Mass.) weighing between 136-191 g with an average weight of 167.6 g. The assay was performed as described above for mice except an average of 5-8 animals were used for each test group and test peptide and 5% activated carbon were administered simultaneously (versus 7 minutes apart). In addition, the animals were sacrificed 10 minutes after the administration of peptide and test compound.

aminopeptidase = aminopeptidase (Sus scrofa, UniProt P15145); settings: 37° C., up to 24 h
Protocol: The stability of SEQ ID NO:3 in the presence of several mammalian digestive enzymes was determined. SEQ ID NO:3 was exposed to a variety of in vitro conditions including digestive enzymes and low ph environments designed to simulate gastric fluid. SEQ ID NO:3 was incubated with chymotrypsin, trypsin, pepsin, aminopeptidase, carboxypeptidase A, and simulated gastric fluid (sgf) at ph 1.0. Samples were collected at 0, 3, and 24 h for all conditions except pepsin digestion and the SGF. For the latter two conditions, samples were obtained at 0, 1, and 3 h. Negative control samples were prepared for initial and final time points. A separate, positive activity control was run in parallel to SEQ ID NO:3. All samples were analyzed by LC/MS
500 μL samples of 0.01 mg/mL SEQ ID NO:3 and chemically synthesized SEQ ID NO:4 (wild type ST; positive control) were prepared in the aminopeptidase reaction buffer (5 mM Tris-HCl, 5 mM MgCl2, pH 7.5) in 2 mL eppendorf tubes. 5 μL of a 5 mg/mL Bestatin hydrochloride (BioChemika, 08170; an aminopeptidase inhibitor) stock was added to each control sample (0 and 24 h), for a final concentration of 0.05 mg/mL. All control and test samples (0, 3, and 24 h) were incubated at 37° C. for 5 min. […] These standards were used to generate a standard curve for quantification of samples. […]

CD1 female mice = assay: murine gastrointestinal transit assay, chronic dosing; assay type: in vivo, mouse; settings: oral, daily for 5 days; SEQ ID NO:3 0.06 or 0.25 mg/kg; FIG. 4c
Protocol: The identical experiment was performed to determine if SEQ ID NO:3 is effective in a chronic dosing treatment regimen. Briefly, 8 week old CD1 female mice are dosed orally once a day for 5 days with either SEQ ID NO:3 (0.06 mg/kg or 0.25 mg/kg in 20 mM Tris pH 7.5) or vehicle alone (20 mM Tris pH 7.5). On the 5th day, a GIT assay is performed identical to that above except 200 μl of a 10% charcoal solution is administered. […] The results are shown side by side with acute dosing (1 day).

mice = assay: murine gastrointestinal transit (GIT) assay, acute dosing; assay type: in vivo, mouse
Protocol: In order to determine whether the peptides increase the rate of gastrointestinal transit, the peptides and controls were tested using a murine gastrointestinal transit (GIT) assay (Moon et al. Infection and Immunity 25:127, 1979). In this assay, charcoal, which can be readily visualized in the gastrointestinal tract is administered to mice after the administration of a test compound. The distance traveled by the charcoal is measured and expressed as a percentage of the total length of the […].
Mice were fasted with free access to water for 12 to 16 hours before the treatment with peptide or control buffer. The peptides were orally administered at 1 μg/kg-1 mg/kg of peptide in buffer (20 mM Tris pH 7.5) 7 minutes before being given an oral dose of 5% Activated Carbon (Aldrich 242276-250G). Control mice were administered buffer only before being given a dose of Activated Carbon. After 15 minutes, the mice were sacrificed and their intestines from the stomach to the cecum were dissected. The total length of the intestine as well as the distance traveled from the stomach to the charcoal front was measured for each animal and the results are expressed as the percent of the total length of the intestine traveled by the charcoal front. All results are reported as the average of 10 mice±standard deviation. A comparison of the distance traveled by the charcoal between the mice treated with peptide versus the mice treated with vehicle alone was performed using a Student's t test and a statistically significant difference was considered for P<0.05. P-values are calculated using a two-sided T-Test assuming unequal variances.

Chain of aminopeptidase (P15145 whole entry): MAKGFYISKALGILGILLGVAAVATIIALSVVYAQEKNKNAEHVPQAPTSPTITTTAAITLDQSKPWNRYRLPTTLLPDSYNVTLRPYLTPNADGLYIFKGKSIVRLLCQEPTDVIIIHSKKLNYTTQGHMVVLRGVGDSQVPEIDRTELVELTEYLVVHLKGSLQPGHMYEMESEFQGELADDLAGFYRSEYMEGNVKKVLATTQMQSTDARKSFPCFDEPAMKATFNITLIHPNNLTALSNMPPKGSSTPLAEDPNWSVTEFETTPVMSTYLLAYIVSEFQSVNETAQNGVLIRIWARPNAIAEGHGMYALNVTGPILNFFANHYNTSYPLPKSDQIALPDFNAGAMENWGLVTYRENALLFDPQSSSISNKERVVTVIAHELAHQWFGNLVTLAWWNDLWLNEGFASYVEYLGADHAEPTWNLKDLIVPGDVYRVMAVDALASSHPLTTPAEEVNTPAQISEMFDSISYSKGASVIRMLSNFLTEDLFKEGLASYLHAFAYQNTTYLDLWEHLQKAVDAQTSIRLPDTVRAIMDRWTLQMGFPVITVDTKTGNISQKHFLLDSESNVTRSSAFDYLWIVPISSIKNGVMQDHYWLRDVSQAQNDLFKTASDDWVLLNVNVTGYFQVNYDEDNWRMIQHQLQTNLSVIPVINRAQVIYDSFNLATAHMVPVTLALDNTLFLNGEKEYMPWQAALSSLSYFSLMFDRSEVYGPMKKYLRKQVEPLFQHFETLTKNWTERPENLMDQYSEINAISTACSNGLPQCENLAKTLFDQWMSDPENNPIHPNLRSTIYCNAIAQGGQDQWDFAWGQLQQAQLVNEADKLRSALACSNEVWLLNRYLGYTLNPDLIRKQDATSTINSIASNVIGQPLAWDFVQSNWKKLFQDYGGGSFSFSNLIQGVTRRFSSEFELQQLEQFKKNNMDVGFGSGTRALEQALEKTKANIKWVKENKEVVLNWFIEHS

With C[C@@H]1NC(=O)[C@@H]2CCCN2C(=O)[C@H](CC(N)=O)NC(=O)[C@@H]2CSSC[C@H](N)C(=O)N[C@H]3CSSC[C@H](NC1=O)C(=O)N[C@@H]([C@@H](C)O)C(=O)NCC(=O)N[C@H](C(=O)N[C@@H](Cc1ccc(O)cc1)C(=O)O)CSSC[C@H](NC(=O)[C@H](Cc1ccc(O)cc1)NC(=O)[C@H](CCC(=O)O)NC3=O)C(=O)N2 [SEQ ID NO:3] (H-CCEYCCNPACTGCY-OH; disulfide 1-6, 2-10, 5-13; N-terminus and C-terminus assumed) the “intestinal transit, dose dependence” value (CD rats; female rats, FIG. 4e) was “increases in a dose dependent manner”, the intestinal transit (CD rats; rat GIT assay, FIG. 4d) was “intestinal transit increases” and the “Cleavage of SEQ ID NO: 3 by proteolytic substance” value (aminopeptidase) was “not detectable”. For the same compound, the “gastrointestinal motility upon chronic dosing” value (CD1 female mice) was “effective”, the “intestinal transit rates versus Tris buffer and Zelnorm” value (mice; chemically synthesized peptides, FIG. 4b) was “increase intestinal transit rates more than either Tris buffer alone or an equivalent dose of Zelnorm®” and the gastrointestinal transit rate (mice; oral, SEQ ID NO:4 0.1 mg/kg, Zelnorm 0.1 mg/kg, FIG. 3a, 3b) was “increase gastrointestinal transit rate”.

Source: patent US20090305993A1, “METHODS AND COMPOSITION FOR THE TREATMENT OF GASTROINTESTINAL DISORDERS” (IRONWOOD PHARMACEUTICALS, INC., priority 2006, published 2009)
